Data published in US8728472B2, “Antibodies that bind selectively to P25 and uses therefor” (The Board of Regents of the University of Texas System, priority 2009, dated 2014).
Residues, ends and D or L forms follow the SMILES beside them. *: point of attachment. Cbz = O=C(OCc1ccccc1)*

Assays:
[1] = molecular target: T1, D1 dopamine receptor (Mus musculus, UniProt Q61616); assay: D1 agonist-induced PKA-dependent phosphorylation in striatal slices; type: cell-based
T1 construct: from tissue; host or cells: acute mouse striatal slices
T1 sequence (Q61616 whole entry): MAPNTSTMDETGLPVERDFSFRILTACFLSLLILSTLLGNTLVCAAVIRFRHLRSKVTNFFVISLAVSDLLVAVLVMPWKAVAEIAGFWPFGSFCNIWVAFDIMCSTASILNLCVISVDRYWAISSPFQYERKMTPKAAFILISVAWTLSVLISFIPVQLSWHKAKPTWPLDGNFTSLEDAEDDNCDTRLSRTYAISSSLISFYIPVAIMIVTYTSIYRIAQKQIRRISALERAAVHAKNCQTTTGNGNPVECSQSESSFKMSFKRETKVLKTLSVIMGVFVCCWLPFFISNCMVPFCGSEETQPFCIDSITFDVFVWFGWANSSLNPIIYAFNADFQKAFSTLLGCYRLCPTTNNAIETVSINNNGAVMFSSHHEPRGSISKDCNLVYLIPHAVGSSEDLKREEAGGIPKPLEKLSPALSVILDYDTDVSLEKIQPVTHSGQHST
Protocol: Homogenates were prepared from rapidly dissected tissue or striatal slices using standard methodology (Nishi et al., 1997).

[2] = tested on: calpain; settings: preincubation 20 μM, 1 h, striatal slices
Protocol: Acutely prepared coronal slices were prepared as described (Nishi et al., 1997). For OGD, slices were switched from Kreb's buffer bubbled in 95% O2/5% CO2 to 100% N2 and glucose was replaced by 10 mM sucrose for indicated periods (Sahin et al., 2008; Sahin et al., 2007). […] Homogenates were prepared from rapidly dissected tissue or striatal slices using standard methodology (Nishi et al., 1997). […] For immunostaining of cultured cells, rat primary striatal neuron cultures were prepared, subjected to control or OGD conditions, fixed and stained as described (Meyer et al., 2008).

[3] = tested on: coronal mouse brain slices; assay: TTC viability staining of coronal brain slices subjected to OGD; type: cell-based; settings: for neuroprotective effect against OGD-induced neuronal death / viability (TTC staining) after 60 min OGD: incubation 1 h prior to and during OGD; for viability (TTC staining) after 60 min OGD: 60 min without oxygen and glucose
Protocol: (§1) Slices were treated with SKF81297 (1 μM, 10 min), calpain inhibitor 3, calpeptin (20 μM, 1 h), Ca^2+-free Krebs (1 h), and Indo A or B (1 h) at indicated concentrations. See Methods.
(§2) Abs to p35, DARPP-32 (Nishi et al., 1997), GFAP, and p25 were used to stain rat coronal cryosections (20 μm) from control and stroked hemispheres. […] See Methods for further details.
Having established this pharmacological approach, the effect of OGD on neuronal viability was next quantitatively assessed by 2, 3, 5-triphenyltetrazolium chloride (TTC) staining (Bederson et al., 1986) (FIGS. 8E and 8F). TTC staining was readily observed in coronal mouse brain slices oxygenated in Kreb's buffer for 1 h. OGD induced time-dependent neuronal death with TTC staining reduced to 60.8±2.1 and 0.6±7.9% of control levels by exposure to ischemic conditions for 30 and 60 min, respectively.

[4] = molecular target: T2, Cdk5 (Mus musculus, UniProt P49615); assay: Cdk5 inhibition in striatal slices by blotting phospho-Thr75 DARPP-32; type: cell-based
T2 construct: from tissue; host or cells: acute striatal slices
T2 sequence (P49615 whole entry): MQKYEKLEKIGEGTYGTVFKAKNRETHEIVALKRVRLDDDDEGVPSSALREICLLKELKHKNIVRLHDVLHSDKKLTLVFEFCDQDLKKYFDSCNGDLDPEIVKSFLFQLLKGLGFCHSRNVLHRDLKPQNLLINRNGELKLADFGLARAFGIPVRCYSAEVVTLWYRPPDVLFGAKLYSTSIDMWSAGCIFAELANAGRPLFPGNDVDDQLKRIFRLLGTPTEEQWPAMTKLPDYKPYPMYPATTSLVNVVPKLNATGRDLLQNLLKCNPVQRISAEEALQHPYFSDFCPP
T2 sequence (P61809 2-307 partner limits assumed): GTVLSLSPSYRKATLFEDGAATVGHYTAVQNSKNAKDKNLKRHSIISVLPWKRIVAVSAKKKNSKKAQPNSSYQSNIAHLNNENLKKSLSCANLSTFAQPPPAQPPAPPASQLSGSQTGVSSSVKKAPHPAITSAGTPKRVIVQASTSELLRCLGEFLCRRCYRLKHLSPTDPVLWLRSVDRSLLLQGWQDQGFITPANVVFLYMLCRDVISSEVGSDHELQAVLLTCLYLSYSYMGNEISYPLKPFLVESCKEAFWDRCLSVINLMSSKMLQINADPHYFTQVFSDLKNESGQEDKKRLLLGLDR
Protocol: as §1, §2
To assess the deleterious effects of aberrantly active Cdk5/p25, the selective and potent Cdk5 inhibitor, indolinone A (Gillardon et al., 2005) (Indo A) was employed. First, its ability to inhibit Cdk5 in striatal slices was assessed by treating striatal slices with various concentrations (1-10 μM) of Indo A and blotting the lysates for the defined Cdk5 site, phospho-Thr75 DARPP-32 (Bibb et al., 1999). […] In contrast the congener Indolinone B, which is limited in specificity to Cdk4 (Weishaupt et al., 2003), had no effect on Cdk5-dependent phosphorylation of DARPP-32.

[5] = tested on: striatal projecting spiny neurons; assay: Electrophysiological recordings (EPSP, membrane potential, field potential) in corticostriatal slices under OGD; type: cell-based; settings: pre-treatment
Source text: Electrophysiological recordings of FPs and single unit activity were taken from slices under physiological and OGD conditions using described methodology (Calabresi et al., 1998; Picconi et al., 2003; Costa et al., 2006).
To better understand the physiological effects of shorter periods of ischemia, a neurophysiological approach was utilized. Sharp microelectrode intracellular recordings were obtained from striatal projecting spiny neurons identified according to their electrophysiological characteristics (Calabresi et al., 1998). In these neurons, a very brief period (2-3 min) of OGD induced loss of membrane potential (FIGS. 10A-B) and a transient suppression of the excitatory post-synaptic potential (EPSP) followed by a long-term increase in the EPSP amplitude in comparison to the pre-ischemic period (139.7±10.3%, n=5, p<0.05, FIG. 10C). This long-term increase of the glutamatergic transmission at corticostriatal synapses, called post-ischemic LTP (i-LTP), represents a pathological form of synaptic plasticity occurring after brain ischemia (Calabresi et al., 2003; Calabresi et al., 1998; Calabresi et al., 2002). […] Extracellular field potential (FP) recordings were also obtained from corticostriatal slices. In control conditions, 10 min of OGD caused an irreversible loss of FP (FIGS. 10E-F).

Molecule	OGD-dependent p25 generation [2]	TTC staining intensity relative to 60 min OGD without inhibitor [3]	neuroprotective effect against OGD-induced neuronal death [3]	viability (TTC staining) after 60 min OGD [3]	also measured
Oc1cc2c(c(Cl)c1O)CCNCC2c1ccccc1 (centres unmarked) [SKF81297]					increase in phospho-Ser845 GluR1 ([1]; oxygenated slices, 1 μM, 5 min): 2.0±0.1 fold; increase in phospho-Thr34 DARPP-32 ([1]; oxygenated slices, 1 μM, 5 min): 3.6±0.3 fold
CC(C)[C@H](NC(=O)OCc1ccccc1)C(=O)N[C@H](C=O)Cc1ccccc1 [calpain inhibitor 3] (Cbz-Val-Phe-aldehyde)	prevented p25 generation				
CCCC[C@@H](C=O)NC(=O)[C@H](CC(C)C)NC(=O)OCc1ccccc1 [calpeptin]	prevented p25 generation	111.3±6.0 fold	significantly blocked neuronal death	69.6±6.6 % of control levels	
Indolinone B [Indo B]			no such neuroprotective effect		effect on Cdk5-dependent phosphorylation of DARPP-32 [4]: had no effect
indolinone A [Indo A]		95.5±9.6 fold	significantly blocked neuronal death	59.7±6.0 % of control levels	phospho-Thr75 DARPP-32, reduction to % of basal levels ([4]; 5 μM): 26±8 % of basal levels; IC50 ([4]; 1-10 μM, 1 h): 290 nM; increase in phospho-Ser845 in response to SKF81297 after 10 min of ischemia ([1]; preincubation with Indo A 10 μM, 1 h, 10 min OGD/10 min reperfusion): 4.7±1.2 fold; induction of i-LTP at corticostriatal synapses ([5]; 3 min OGD, n=5): completely blocked the induction of i-LTP; loss of field potential (FP) induced by ischemia ([5]; 10 min OGD): significantly reduced the loss of FP
